Measured values taken from PMC10674657, “Quinazolin-4-one/3-cyanopyridin-2-one Hybrids as Dual Inhibitors of EGFR and BRAF^V600E: Design, Synthesis, and Antiproliferative Activity” (Pharmaceuticals, 2023).
Where two headings read alike, the source gives them in different places.

Key:
MCF-10A cells = test: Cell viability (cytotoxicity) MTT assay in non-tumorigenic MCF-10A cells; format: cell-based, human; details: 50 µM, 4 days
[1] = tested on: A-549 human lung carcinoma cell line; test: Antiproliferative assay, A-549
Experimental: (§1) For a rigorous assessment, the widely accepted MTT assay [63, 64] was employed. Using Doxorubicin, a well-established drug, as the reference standard ensures a benchmark for the synthesized compounds, allowing a contextual understanding of their efficacy.
(§2) The MTT assay [63, 64] was employed for this assessment, with Doxorubicin as the reference drug.
(§3) 24h followed by the addition of synthesized compounds (in 200 μL medium to yield a final concentration of 0.1% (v/v) dimethyl sulfoxide) into individual wells of the plates. Four wells were designated to a single compound. The plates were allowed to incubate at 37°C for 96 h. After wards, the medium was aspirated and 3-[4,5-dimethylthiazol-2-yl]-2,5-diphenyltetrazolium bromide (MTT) (0.4 mg/mL) in medium was added to each well and subsequently incubated for 3 h. The medium was aspirated and 150 μL dimethyl sulfoxide (DMSO) was added to each well.
(§4) The plates were vortexed followed by the measurement of absorbance at 540 nm on a microplate

[2] = tested on: MCF-7 human breast adenocarcinoma cell line; test: Antiproliferative assay, MCF-7
Experimental: as §1, §2, §3, §4

[3] = tested on: HT-29 human colon cancer cell line; test: Antiproliferative assay, HT-29
Experimental: as §1, §2, §3, §4

[4] = tested on: Panc-1 human pancreatic cancer cell line; test: Antiproliferative assay, Panc-1
Experimental: as §1, §2, §3, §4

[5] = tested on: four cancer cell lines (A-549, MCF-7, Panc-1, HT-29); test: Antiproliferative assay, average over four cancer cell lines (GI50); details: read-out: Average IC50 (GI50)
Experimental: as §1, §2, §3, §4

[6] = Cell viability (cytotoxicity) MTT assay in non-tumorigenic MCF-10A cells; format: cell-based, human; details: human, MCF-10A mammary epithelial cells
BRAF^V600E [7] = biological target: T1, BRAF^V600E (Mus musculus, UniProt P28028, V585E); test: BRAF V600E kinase inhibitory assay; format: biochemical
T1 construct: Mouse full-length GST-tagged; purchased Invitrogen PV3849
T1 sequence (P28028 whole entry V585E): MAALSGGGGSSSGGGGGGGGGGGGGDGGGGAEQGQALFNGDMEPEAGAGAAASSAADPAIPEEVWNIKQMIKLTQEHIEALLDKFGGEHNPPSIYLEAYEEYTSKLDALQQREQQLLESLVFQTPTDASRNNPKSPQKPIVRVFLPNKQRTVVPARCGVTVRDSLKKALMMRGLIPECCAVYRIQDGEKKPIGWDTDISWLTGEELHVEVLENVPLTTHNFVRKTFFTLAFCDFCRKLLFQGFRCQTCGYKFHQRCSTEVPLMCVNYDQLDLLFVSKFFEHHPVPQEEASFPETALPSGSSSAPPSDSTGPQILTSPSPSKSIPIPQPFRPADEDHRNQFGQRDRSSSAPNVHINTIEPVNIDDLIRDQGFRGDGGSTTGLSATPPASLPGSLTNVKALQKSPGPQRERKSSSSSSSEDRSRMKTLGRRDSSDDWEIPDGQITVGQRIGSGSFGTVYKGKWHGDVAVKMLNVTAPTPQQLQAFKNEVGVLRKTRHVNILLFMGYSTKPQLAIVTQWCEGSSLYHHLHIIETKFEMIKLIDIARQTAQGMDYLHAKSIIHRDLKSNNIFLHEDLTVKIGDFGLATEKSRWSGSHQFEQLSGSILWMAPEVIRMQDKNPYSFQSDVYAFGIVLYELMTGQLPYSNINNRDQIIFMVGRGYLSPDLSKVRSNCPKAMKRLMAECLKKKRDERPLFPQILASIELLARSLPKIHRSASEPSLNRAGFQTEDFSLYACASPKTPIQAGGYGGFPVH
From the text: Mouse full-length GST-tagged
developed using a phosphor screen.

EGFR [8] = biological target: T2, EGFR (Homo sapiens, UniProt P00533); test: EGFR-TK inhibitory assay
T2 sequence (P00533 669-1210): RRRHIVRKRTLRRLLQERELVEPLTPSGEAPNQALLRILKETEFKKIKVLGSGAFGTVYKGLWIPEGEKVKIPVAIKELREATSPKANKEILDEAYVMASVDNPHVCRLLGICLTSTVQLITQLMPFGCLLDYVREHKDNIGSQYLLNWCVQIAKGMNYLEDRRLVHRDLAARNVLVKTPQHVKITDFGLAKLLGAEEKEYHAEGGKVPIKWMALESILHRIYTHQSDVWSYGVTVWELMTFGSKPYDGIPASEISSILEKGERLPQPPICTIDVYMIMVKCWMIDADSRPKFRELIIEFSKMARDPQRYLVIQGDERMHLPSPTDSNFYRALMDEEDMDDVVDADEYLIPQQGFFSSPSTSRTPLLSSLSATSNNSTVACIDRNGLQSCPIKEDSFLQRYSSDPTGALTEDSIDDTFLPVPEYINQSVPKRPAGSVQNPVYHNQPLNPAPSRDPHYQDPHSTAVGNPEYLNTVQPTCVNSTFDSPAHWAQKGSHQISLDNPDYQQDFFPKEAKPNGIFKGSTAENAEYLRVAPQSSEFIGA
Experimental: Baculoviral expression vectors including pBlueBacHis2B and pFASTBacHTc were used
5ʹ upstream to the EGFR sequence comprised a sequence that encoded (His)6.
Sf-9cells were infected for 72h for protein expression. The pellets of Sf-9 cells were solubilized in
a buffer containing sodium vanadate (100 μM), aprotinin (10 μg/mL), triton (1%), HEPES buffer(50mM), ammonium molybdate (10 μM), benzamidine HCl (16 μg/mL), NaCl (10mM), leupeptin (10 μg/mL) and pepstatin (10 μg/mL) at 0°C for 20 min at pH 7.4, followed by centrifugation for 20 min. To eliminate the nonspecifically bound material, a Ni-NTA super flow packed column was used to pass through and wash the crude extract supernatant first with
10mMand then with 100 mM imidazole. Histidine-linked proteins were first eluted with 250 and
then with 500 mM imidazole subsequent to dialysis against NaCl (50 mM), HEPES (20 mM),
glycerol (10%) and 1 μg/mL each of aprotinin, leupeptin and pepstatin for 120 min. The
purification was performed either at 4 °C or on ice. To record autophosphorylation level, EGFR
kinase assay was carried out based on DELFIA/Time-Resolved Fluorometry. The compounds
were first dissolved in DMSO absolute, subsequent to dilution t o appropriate concentration using
HEPES(25 mM) at pH 7.4. Each compound (10 μL) was incubated with recombinant enzyme (10
μL, 5ng for EGFR, 1:80 dilution in 100 mM HEPES) for 10 min at 25 °C, subsequent to the addition of5X buffer (10 μL, containing 2 mM MnCl2, 100 μM Na3VO4, 20 mM HEPES and 1
mM DTT)and ATP-MgCl2 (20 μL, containing 0.1 mM ATP and 50 mM MgCl2) and incubation
for 1h. The negative and positive controls were included in each plate by the incubation of enzyme
either with or without ATP-MgCl2. The liquid was removed after incubation and the plates were
washed thrice using a wash buffer. Europium-tagged anti phosphotyrosine antibody (75 μL, 400
ng) was added to each well followed by incubation of 1h and then washing of the plates using buffer. The enhancement solution was added to each well and the signal was recorded at excitation
The autophosphorylation percentage inhibition by compounds was calculated using the following equation: Using the curves of percentage inhibition

BRAF^V600E [9] = details: cited from earlier work
[10] = tested on: cancer cell proliferation; details: cited from earlier work
EGFR [11] = biological target: T2, EGFR; parameters: acids645–1186; His6 (N); made in house; host or cells: Sf-9 insect cells (baculovirus; pBlueBacHis2B / pFASTBacHTc); details: cited from earlier work

2-((3-Allyl-4-oxo-3,4-dihydroquinazolin-2-yl)thio)-N-(4-(4-(4-bromophenyl)-4-cyano-6-oxo-1,6-dihydropyridin-2-yl)phenyl)acetamide [Compound 20]
Cell Viability % (MCF-10A cells): 91%
IC50 ([1]; read-out: Antiproliferative Activity IC50 ± SEM, A-549, mean ± SEM): 2000 ± 100 nM
IC50 ([2]; read-out: Antiproliferative Activity IC50 ± SEM, MCF-7, mean ± SEM): 1800 ± 100 nM
IC50 ([3]; read-out: Antiproliferative Activity IC50 ± SEM, HT-29, mean ± SEM): 2100 ± 100 nM
IC50 ([4]; read-out: Antiproliferative Activity IC50 ± SEM, Panc-1, mean ± SEM): 2100 ± 100 nM
IC50 ([5]; average of IC50 against four cancer cell lines): 2000 nM

C=CCn1c(SCC(=O)Nc2ccc(-c3cc(-c4ccc(Cl)cc4)c(C#N)c(=O)[nH]3)cc2)nc2ccccc2c1=O [Compound 19, 2-((3-Allyl-4-oxo-3,4-dihydroquinazolin-2-yl)thio)-N-(4-(4-(4-chlorophenyl)-5-cyano-6-oxo-1,6-dihydropyridin-2-yl)phenyl)acetamide]
viability at 4 days, 50 µM [6]: 91%
IC50 (BRAF^V600E [7]; BRAF V600E, mean ± SEM, read-out: BRAF Inhibition IC50 ± SEM): 190 ± 12 nM
fold less potent than Erlotinib, BRAF^V600E (BRAF^V600E [7]; ratio of IC50 to Erlotinib): 3 fold
IC50 (EGFR [8]): 140 ± 11 nM
fold less potent than Erlotinib, EGFR (EGFR [8]; ratio of IC50 to Erlotinib): 1.8 fold
IC50 ([1]; Homo sapiens, A549, read-out: Antiproliferative Activity IC50 ± SEM, A-549): 1300 ± 100 nM
IC50 ([2]; Homo sapiens, MCF7, read-out: Antiproliferative Activity IC50 ± SEM, MCF-7): 1200 ± 80 nM
IC50 ([3]; Homo sapiens, HT-29, read-out: Antiproliferative Activity IC50 ± SEM, HT-29): 1600 ± 100 nM
IC50 ([4]; Homo sapiens, PANC-1, read-out: Antiproliferative Activity IC50 ± SEM, Panc-1): 1600 ± 100 nM
IC50 ([5]; Homo sapiens): 1400 nM

COc1ccc(-c2cc(-c3ccc(OC)c(OC)c3)n(CC(=O)Nc3ccc(C4=NNC(c5ccc(OC)c(OC)c5)C4)cc3)c(=O)c2C#N)cc1OC (centres unmarked) [III]
IC50 (BRAF^V600E [9]): 65 nM
GI50 [10]: 25 nM

C=CCn1c(SCC(=O)Nc2cccc(C(=O)/C=C/c3ccc(OC)cc3)c2)nc2ccccc2c1=O [II]
IC50 (BRAF^V600E [9]): 650 nM
IC50 (EGFR [11]): 110 nM

COc1ccc(/C=C/C(=O)c2ccc(NC(=O)Cn3c(-c4ccc(OC)c(OC)c4)cc(-c4ccc(OC)c(OC)c4)c(C#N)c3=O)cc2)cc1 [IV]
IC50 (BRAF^V600E [9]): 58 nM
GI50 [10]: 720 nM
